In ChEMBL document CHEMBL5352470, “RS6077 induces mitotic arrest and selectively activates cell death in human cancer cell lines and in a lymphoma tumor in vivo” (Eur J Med Chem, 2023):
Calls of active or inactive are those of the source. The calls are words filed in the database; no cut-off is given here.

Experiments:
[1] = target: Tubulin (Homo sapiens) (UniProt P68371+Q9H4B7+P0DPH7+P68366+Q13509+Q71U36+P04350+Q3ZCM7+P07437+P68363+Q9BQE3+Q6PEY2+Q13885+Q9BVA1+Q9BUF5); experiment: Inhibition of [3H]colchicine binding to tubulin (unknown origin) at 1 to 5 uM relative to control; assay type: protein-complex assay; settings: dose 1-5 µM
[2] = system: AHH-1; experiment: Antiproliferative activity against human AHH-1 cells assessed as inhibition of cell growth measured for 48 hrs by MTT assay; assay type: functional, cell-based; settings: AHH-1, 48 h
[3] = system: TERT-RPE1; experiment: Induction of cell cycle arrest in human TERT-RPE1 cells assessed as accumulation of cells at G1 phase at 2500 nM incubated for 72 hrs by annexin V-FITC and PI staining based flow cytometry analysis; assay type: functional
[4] = system: TERT-RPE1; experiment: Induction of cell cycle arrest in human TERT-RPE1 cells assessed as accumulation of cells at G2/M phase at 1000 nM incubated for 72 hrs by annexin V-FITC and PI staining based flow cytometry analysis; assay type: functional
[5] = system: TERT-RPE1; experiment: Induction of cell cycle arrest in human TERT-RPE1 cells assessed as accumulation of cells at G2/M phase at 2500 nM incubated for 72 hrs by annexin V-FITC and PI staining based flow cytometry analysis; assay type: functional
[6] = system: HeLa; experiment: Induction of cell cycle arrest in human HeLa cells assessed as accumulation of cells at G1 phase at 100 nM incubated for 72 hrs by annexin V-FITC and PI staining based flow cytometry analysis; assay type: functional
[7] = system: AHH-1; experiment: Induction of cell cycle arrest in human AHH-1 cells assessed as accumulation of cells at G1 phase at 100 nM incubated for 72 hrs by annexin V-FITC and PI staining based flow cytometry analysis; assay type: functional
[8] = system: Maver1; experiment: Antiproliferative activity against human MAVER-1 cells assessed as inhibition of cell growth measured for 72 hrs by MTT assay; assay type: functional, cell-based; settings: Maver1, 72 h
[9] = system: TMD8; experiment: Antitumor activity against human TMD8 cells xenografted in NOD/SCID mouse assessed as reduction in tumor size at 100 mg/kg, po administered for 5 days; assay type: functional, organism-based; settings: time 5.0 day
[10] = system: TMD8; experiment: Antitumor activity against human TMD8 cells xenografted in NOD/SCID mouse assessed as reduction in tumor volume at 100 mg/kg, po administered for 5 days and measured on day 1; assay type: functional; settings: time 1 day
[11] = Toxicity in human T cells derived from human PBMC assessed as necrotic cells at 1 uM measured for 48 hrs by annexin V-FITC and PI staining based flow cytometry analysis (reference value: 0.31 to 0.48 %); settings: t-cell
[12] = Toxicity in human T cells derived from human PBMC assessed as late apoptotic cells at 0.1 uM measured for 72 hrs by annexin V-FITC and PI staining based flow cytometry analysis (reference value: 11.5 to 17.6%); settings: t-cell

inhibition [1]: 85%
SMILES: COc1cc(C(=O)c2ccn(-c3ncnc4[nH]ccc34)c2)cc(OC)c1OC
IC50 [2]: 16.3 nM
Activity [3]: 17.6%
Activity [4]: 82.7%
Activity [5]: 72.7%
Activity [6]: 28.5%
Activity [7]: 37.1%
IC50 [8]: 63.1 nM
Activity [9]: Active
Activity [10]: 252 mm3
Activity [11]: 0.24%
Activity [12]: 11.8%
